Assay results as given in publication PMC5428509, “Irreversible inhibition of BTK kinase by a novel highly selective inhibitor CHMFL-BTK-11 suppresses inflammatory response in rheumatoid arthritis model” (Scientific Reports, 2017).

Legend:
Experiment in all cases: biochemical
Parameters in all cases: KinomeScan competition binding panel (DiscoveRx), percent of control at 1 uM
Conditions in all cases: read-out: Percent Control
[1] = target: T1, ABL1(Q252H)-nonphosphorylated (Homo sapiens, UniProt P00519, Q252H)
T1 construct: nonphosphorylated
Outline: (§1)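 Selectivity profiled across 456 kinases/mutants by KinomeScan binding technology.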

AURKC = AURKC (Homo sapiens, UniProt Q9UQB9)
AURKC, sequence (Q9UQB9 whole entry): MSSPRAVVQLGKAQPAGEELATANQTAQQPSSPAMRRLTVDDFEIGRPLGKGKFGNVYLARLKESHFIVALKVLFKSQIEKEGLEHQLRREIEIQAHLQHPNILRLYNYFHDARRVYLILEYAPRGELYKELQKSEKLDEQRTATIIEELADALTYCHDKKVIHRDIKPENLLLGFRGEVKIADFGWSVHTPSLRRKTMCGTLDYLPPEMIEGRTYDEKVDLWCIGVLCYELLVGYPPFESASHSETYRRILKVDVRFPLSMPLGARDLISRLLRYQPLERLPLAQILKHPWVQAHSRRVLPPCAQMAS
Outline: as §1

CDK11 = target: T2, CDK11 (Homo sapiens, UniProt Q9BWU1)
T2 construct: gene CDK19
T2 sequence (Q9BWU1 whole entry): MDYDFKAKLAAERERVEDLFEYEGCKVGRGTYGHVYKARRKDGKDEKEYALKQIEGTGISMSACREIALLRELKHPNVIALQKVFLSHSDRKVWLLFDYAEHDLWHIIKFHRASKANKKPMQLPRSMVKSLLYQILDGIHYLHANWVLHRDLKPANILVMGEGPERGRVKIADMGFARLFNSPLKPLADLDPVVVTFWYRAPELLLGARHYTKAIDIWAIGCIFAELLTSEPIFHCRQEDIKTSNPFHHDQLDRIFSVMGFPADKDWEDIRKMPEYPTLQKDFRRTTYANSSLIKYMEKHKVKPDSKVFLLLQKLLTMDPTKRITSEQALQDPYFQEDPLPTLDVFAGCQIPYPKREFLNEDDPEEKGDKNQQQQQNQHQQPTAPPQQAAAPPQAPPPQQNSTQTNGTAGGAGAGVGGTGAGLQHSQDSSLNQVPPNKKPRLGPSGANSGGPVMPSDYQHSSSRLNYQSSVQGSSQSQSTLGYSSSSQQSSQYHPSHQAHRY
Outline: as §1

CDK4-cyclinD1 = target: T3, CDK4-cyclinD1 (Homo sapiens, UniProt P11802)
T3 construct: cyclinD1
T3 sequence (P11802 whole entry): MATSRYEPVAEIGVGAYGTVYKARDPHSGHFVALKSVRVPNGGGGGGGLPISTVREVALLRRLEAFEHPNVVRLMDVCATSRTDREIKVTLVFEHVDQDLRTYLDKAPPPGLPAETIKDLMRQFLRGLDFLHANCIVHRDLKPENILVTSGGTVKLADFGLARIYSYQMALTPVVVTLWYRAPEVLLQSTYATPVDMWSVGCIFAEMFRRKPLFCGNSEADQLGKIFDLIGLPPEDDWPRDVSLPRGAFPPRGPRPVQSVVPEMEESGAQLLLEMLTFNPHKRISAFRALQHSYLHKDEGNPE
T3 sequence (P24385 whole entry partner): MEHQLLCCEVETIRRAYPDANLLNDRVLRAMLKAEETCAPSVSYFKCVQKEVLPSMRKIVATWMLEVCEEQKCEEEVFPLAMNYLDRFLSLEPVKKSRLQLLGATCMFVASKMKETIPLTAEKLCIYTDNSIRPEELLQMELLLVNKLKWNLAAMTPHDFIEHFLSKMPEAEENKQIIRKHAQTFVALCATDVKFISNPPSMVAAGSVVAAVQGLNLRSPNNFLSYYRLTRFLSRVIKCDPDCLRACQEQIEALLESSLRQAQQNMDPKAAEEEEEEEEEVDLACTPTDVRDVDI
Outline: as §1

EGFR(E746-A750del) = EGFR(E746-A750del) (Homo sapiens, UniProt P00533, DEL746-750)
Outline: as §1

EPHA6 = EPHA6 (Homo sapiens, UniProt Q9UF33)
Outline: as §1

ERK5 = target: T4, ERK5 (Homo sapiens, UniProt Q13164)
T4 construct: gene MAPK7
Outline: as §1

FGR = FGR (Homo sapiens, UniProt P09769)
FGR, sequence (P09769 whole entry): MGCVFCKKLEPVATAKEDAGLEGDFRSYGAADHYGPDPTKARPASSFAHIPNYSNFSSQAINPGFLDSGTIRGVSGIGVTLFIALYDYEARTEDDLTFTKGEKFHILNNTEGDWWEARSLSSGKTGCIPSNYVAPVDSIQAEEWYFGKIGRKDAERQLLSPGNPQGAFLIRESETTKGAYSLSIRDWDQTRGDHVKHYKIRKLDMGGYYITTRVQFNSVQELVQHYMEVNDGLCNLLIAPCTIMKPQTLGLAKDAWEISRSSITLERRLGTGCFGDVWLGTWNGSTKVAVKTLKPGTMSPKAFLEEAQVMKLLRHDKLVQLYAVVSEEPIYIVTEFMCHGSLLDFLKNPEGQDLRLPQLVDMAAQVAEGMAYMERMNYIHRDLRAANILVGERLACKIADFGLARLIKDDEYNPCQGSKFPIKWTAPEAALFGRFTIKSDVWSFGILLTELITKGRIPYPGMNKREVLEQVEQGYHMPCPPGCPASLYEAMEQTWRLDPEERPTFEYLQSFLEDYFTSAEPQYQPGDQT
Outline: as §1

LATS2 = LATS2 (Homo sapiens, UniProt Q9NRM7)
Outline: as §1

LYN = LYN (Homo sapiens, UniProt P07948)
Outline: as §1

MAST1 = MAST1 (Homo sapiens, UniProt Q9Y2H9)
Outline: as §1

MET(Y1235D) = MET(Y1235D) (Homo sapiens, UniProt P08581, Y1235D)
Outline: as §1

MLK2 = target: T5, MLK2 (Homo sapiens, UniProt Q02779)
T5 construct: gene MAP3K10
Outline: as §1

MST1 = target: T6, MST1 (Homo sapiens, UniProt Q13043)
T6 construct: gene STK4
Outline: as §1

MST1R = MST1R (Homo sapiens, UniProt Q04912)
Outline: as §1

MST3 = target: T7, MST3 (Homo sapiens, UniProt Q9Y6E0)
T7 construct: gene STK24
T7 sequence (Q9Y6E0 whole entry): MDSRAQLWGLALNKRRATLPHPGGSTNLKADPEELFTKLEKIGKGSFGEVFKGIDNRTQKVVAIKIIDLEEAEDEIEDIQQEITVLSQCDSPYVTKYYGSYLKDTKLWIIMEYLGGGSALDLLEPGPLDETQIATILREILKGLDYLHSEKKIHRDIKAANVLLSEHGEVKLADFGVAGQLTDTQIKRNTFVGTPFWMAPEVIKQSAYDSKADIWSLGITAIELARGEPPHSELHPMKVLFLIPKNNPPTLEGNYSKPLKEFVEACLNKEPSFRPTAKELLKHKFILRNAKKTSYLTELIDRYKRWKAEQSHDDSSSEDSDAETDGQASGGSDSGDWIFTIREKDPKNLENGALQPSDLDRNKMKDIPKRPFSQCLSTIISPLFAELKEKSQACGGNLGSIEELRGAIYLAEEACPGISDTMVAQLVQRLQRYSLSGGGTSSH
Outline: as §1

MYO3A = MYO3A (Homo sapiens, UniProt Q8NEV4)
Outline: as §1

PIP5K2C = target: T8, PIP5K2C (Homo sapiens, UniProt Q8TBX8)
T8 construct: gene PIP4K2C
Outline: as §1

PRKCH = PRKCH (Homo sapiens, UniProt P24723)
PRKCH, sequence (P24723 whole entry): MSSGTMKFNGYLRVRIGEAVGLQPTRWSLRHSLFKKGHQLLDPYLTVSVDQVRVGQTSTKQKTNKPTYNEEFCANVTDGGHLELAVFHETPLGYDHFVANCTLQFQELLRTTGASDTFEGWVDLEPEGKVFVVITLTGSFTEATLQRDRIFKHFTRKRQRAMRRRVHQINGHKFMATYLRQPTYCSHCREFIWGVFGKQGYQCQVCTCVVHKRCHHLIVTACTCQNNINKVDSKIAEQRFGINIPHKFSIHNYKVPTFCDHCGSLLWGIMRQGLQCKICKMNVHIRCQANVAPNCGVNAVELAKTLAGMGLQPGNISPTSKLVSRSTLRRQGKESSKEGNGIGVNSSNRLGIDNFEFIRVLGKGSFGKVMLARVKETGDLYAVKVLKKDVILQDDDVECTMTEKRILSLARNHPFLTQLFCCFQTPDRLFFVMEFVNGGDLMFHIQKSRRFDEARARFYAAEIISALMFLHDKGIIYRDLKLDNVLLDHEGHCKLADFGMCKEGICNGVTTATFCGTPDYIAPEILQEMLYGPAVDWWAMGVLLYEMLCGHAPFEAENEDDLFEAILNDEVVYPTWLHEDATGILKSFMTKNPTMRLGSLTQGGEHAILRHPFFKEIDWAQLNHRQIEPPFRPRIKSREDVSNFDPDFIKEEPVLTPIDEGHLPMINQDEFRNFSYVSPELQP
Outline: as §1

PYK2 = target: T9, PYK2 (Homo sapiens, UniProt Q14289)
T9 construct: gene PTK2B
T9 sequence (Q14289 whole entry): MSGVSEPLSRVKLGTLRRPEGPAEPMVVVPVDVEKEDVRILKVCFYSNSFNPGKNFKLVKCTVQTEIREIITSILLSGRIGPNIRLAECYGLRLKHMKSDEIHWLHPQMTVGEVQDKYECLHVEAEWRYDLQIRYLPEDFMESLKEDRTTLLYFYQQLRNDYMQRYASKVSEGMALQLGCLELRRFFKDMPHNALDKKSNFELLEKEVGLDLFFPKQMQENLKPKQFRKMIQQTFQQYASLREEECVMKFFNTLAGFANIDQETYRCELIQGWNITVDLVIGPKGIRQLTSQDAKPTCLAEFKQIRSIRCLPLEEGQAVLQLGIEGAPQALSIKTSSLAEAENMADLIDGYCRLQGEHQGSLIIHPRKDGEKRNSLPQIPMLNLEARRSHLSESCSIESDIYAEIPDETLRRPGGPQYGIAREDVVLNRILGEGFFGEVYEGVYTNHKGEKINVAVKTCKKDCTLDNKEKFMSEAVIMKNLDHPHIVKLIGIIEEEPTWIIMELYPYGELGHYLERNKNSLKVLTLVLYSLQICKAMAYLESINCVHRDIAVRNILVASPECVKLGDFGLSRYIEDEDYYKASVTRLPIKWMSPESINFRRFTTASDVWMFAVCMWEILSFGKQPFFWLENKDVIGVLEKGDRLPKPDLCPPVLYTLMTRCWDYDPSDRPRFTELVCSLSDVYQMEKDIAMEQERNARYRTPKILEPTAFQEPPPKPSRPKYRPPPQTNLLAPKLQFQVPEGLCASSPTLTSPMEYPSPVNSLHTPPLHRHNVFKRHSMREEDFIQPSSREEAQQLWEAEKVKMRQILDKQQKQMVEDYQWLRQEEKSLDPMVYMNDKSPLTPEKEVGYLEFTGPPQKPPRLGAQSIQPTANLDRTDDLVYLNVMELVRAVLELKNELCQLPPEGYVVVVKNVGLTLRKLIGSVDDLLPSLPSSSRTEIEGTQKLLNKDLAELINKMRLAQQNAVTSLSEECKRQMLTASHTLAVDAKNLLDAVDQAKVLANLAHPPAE
Outline: as §1

RIPK5 = target: T10, RIPK5 (Homo sapiens, UniProt Q6XUX3)
T10 construct: gene DSTYK
Outline: as §1

[2] = target: T11, RSK3(Kin.Dom.2-C-terminal) (Homo sapiens, UniProt Q15349)
T11 construct: gene RPS6KA2; Kin.Dom.2-C-terminal
T11 sequence (Q15349 whole entry): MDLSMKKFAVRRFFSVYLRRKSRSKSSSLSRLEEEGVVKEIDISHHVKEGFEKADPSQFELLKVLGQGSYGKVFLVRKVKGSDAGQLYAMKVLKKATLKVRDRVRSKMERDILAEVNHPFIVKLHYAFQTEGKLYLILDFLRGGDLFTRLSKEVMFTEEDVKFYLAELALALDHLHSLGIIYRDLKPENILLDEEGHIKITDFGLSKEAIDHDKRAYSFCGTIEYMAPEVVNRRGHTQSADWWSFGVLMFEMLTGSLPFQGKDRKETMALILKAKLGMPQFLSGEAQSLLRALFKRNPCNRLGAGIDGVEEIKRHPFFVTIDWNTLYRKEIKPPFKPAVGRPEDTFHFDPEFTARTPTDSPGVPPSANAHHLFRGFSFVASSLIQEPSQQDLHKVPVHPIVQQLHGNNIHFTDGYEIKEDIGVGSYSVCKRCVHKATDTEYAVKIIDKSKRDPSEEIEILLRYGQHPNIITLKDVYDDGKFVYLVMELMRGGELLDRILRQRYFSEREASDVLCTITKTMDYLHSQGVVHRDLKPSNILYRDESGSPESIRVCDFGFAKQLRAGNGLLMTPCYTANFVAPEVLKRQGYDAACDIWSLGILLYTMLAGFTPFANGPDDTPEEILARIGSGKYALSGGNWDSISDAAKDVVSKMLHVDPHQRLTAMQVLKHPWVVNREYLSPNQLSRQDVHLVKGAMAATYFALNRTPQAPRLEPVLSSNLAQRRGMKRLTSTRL
Outline: as §1

STK33 = STK33 (Homo sapiens, UniProt Q9BYT3)
Outline: as §1

STK39 = STK39 (Homo sapiens, UniProt Q9UEW8)
Outline: as §1

**Q.** C=CC(=O)Nc1cc(-n2c(=O)ccc3cnc4ccc(-n5cccn5)cc4c32)ccc1C [CHMFL-BTK-11] was tested. Which remaining binding at 1 µM [1] did it give?
**A.** 100%

**Q.** And the remaining binding at 1 µM (AURKC)?
**A.** 98%

**Q.** And the remaining binding at 1 µM (CDK11)?
**A.** 89%

**Q.** What about the remaining binding at 1 µM (CDK4-cyclinD1) of the same compound?
**A.** 97%

**Q.** What about the remaining binding at 1 µM (EGFR(E746-A750del)) of the same compound?
**A.** 90%

**Q.** What about the remaining binding at 1 µM (EPHA6) of the same compound?
**A.** 100%

**Q.** What about the remaining binding at 1 µM (ERK5) of the same compound?
**A.** 100%

**Q.** What about the remaining binding at 1 µM (FGR) of the same compound?
**A.** 100%

**Q.** And the remaining binding at 1 µM (LATS2)?
**A.** 100%

**Q.** And the remaining binding at 1 µM (LYN)?
**A.** 94%

**Q.** What about the remaining binding at 1 µM (MAST1) of the same compound?
**A.** 100%

**Q.** And the remaining binding at 1 µM (MET(Y1235D))?
**A.** 100%

**Q.** What about the remaining binding at 1 µM (MLK2) of the same compound?
**A.** 94%

**Q.** And the remaining binding at 1 µM (MST1)?
**A.** 100%

**Q.** What about the remaining binding at 1 µM (MST1R) of the same compound?
**A.** 98%

**Q.** What about the remaining binding at 1 µM (MST3) of the same compound?
**A.** 100%

**Q.** And the remaining binding at 1 µM (MYO3A)?
**A.** 100%

**Q.** And the remaining binding at 1 µM (PIP5K2C)?
**A.** 90%

**Q.** And the remaining binding at 1 µM (PRKCH)?
**A.** 84%

**Q.** And the remaining binding at 1 µM (PYK2)?
**A.** 100%

**Q.** What about the remaining binding at 1 µM (RIPK5) of the same compound?
**A.** 99%

**Q.** What about the remaining binding at 1 µM [2] of the same compound?
**A.** 100%

**Q.** What about the remaining binding at 1 µM (STK33) of the same compound?
**A.** 89%

**Q.** And the remaining binding at 1 µM (STK39)?
**A.** 72%
